Four molecules from article PMC10394347 (Chinese Herbal Medicines, 2023) can be followed below.

The target in the test is AKT (PH domain) (Homo sapiens, UniProt P31749). Description: intrinsic fluorescence quenching. Format: binding.
Chain of AKT (PH domain) (P31749 1-123): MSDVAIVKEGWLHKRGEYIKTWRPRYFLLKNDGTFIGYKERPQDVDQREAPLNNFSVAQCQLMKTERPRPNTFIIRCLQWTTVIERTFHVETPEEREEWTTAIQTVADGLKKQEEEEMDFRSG
Consider `O=C(O)/C=C/c1ccc(O[C@@H]2O[C@H](C(=O)O)[C@@H](O)[C@H](O)[C@H]2O)c(O)c1` [CA4G, caffeic-4′-O-glucuronide], for which the Kd is 37.9 µM. For `O=C(O)/C=C/c1ccc(O)c(O)c1` [CA, caffeic acid], the Kd is 183 µM. For `COc1cc(/C=C/C(=O)O)ccc1O[C@@H]1O[C@H](C(=O)O)[C@@H](O)[C@H](O)[C@H]1O` [FA4G, ferulic-4′-O-glucuronide] the value was 48.1 µM. For `COc1cc(/C=C/C(=O)O)ccc1O` [FA, ferulic acid] the value was 185 µM.
